Patent US7112559B1, “Thickened quaternary ammonium compound sanitizer” (Ecolab Inc., priority 2005, dated 2006)

How the values were obtained:
[1] = system: Salmonella typhi, ATCC # 6539; assay: Bactericidal efficacy vs. chlorine standard (available chlorine equivalence); format: cell-based; design: key to Growth in Test Tube 8 / Growth in Test Tube 9 / Growth in Test Tube 10 / Growth in Test Tube 1 / Growth in Test Tube 2 / Growth in Test Tube 3 / Growth in Test Tube 4 / Growth in Test Tube 5 / Growth in Test Tube 6 / Growth in Test Tube 7: (+) = growth; (−) = no growth; settings: S. typhi
Experimental: (§1) Example 2 compared the bactericidal efficacy of the thickened quaternary ammonium compound sanitizer composition (Formula 7) to that of a known concentration of chlorine. […] The mix order for Formula 7 is as follows: (1) water; (2) propylene glycol; (3) LonzaGuard; (4) FD&C Red #40; (5) Methocel; (6) Triethanolamine; and (7) Ethanol. Formula 7 and the chlorine standard were tested against Staphylococcus aureus, ATCC # 6538 and Salmonella typhi, ATCC # 6539. The chlorine standard was prepared by adding 0.1 ml of a 5% NaOCl stock solution (refrigerated Clorox® bleach) to 100 ml of sterile phosphate buffer solution to create a 50–55 ppm available chlorine concentration.
(§2) For the chlorine standard test, 0.05 ml of the test culture was added to a test tube with 50 ppm available chlorine. The test tube was placed in a 20° C. water bath. After 1 minute, the solution was transferred to test tube 1 with 10 ml of Fluid Thioglycollate medium (commercially available from Becton Dickinson (Sparks, Md.)). These steps were repeated for nine test tubes.
(§3) For Formula 7, the same series of test tubes used for the available chlorine test was used to test the quaternary ammonium compound sanitizer composition. 0.05 ml of test culture was added to Formula 7. The test tube was placed in a 20° C. water bath. After 1 minute, the solution was transferred to a test tube with 10 ml of Letheen broth in place of the Fluid Thioglycollate medium.
(§4) The formulas in Table 4 were tested with Staphylococcus aureus, ATCC # 6538 and Salmonella typhi, ATCC # 6539. […] A “+” sign means that the test tube had bacteria growth.
(§5) Equivalency is met when the sample tubes have an absence of growth in as many tubes as the chlorine standard.

[2] = system: Staphylococcus aureus, ATCC # 6538; assay: as above; format: cell-based; design: key to Growth in Test Tube 8 / Growth in Test Tube 9 / Growth in Test Tube 10 / Growth in Test Tube 1 / Growth in Test Tube 2 / Growth in Test Tube 3 / Growth in Test Tube 4 / Growth in Test Tube 5 / Growth in Test Tube 6 / Growth in Test Tube 7: (+) = growth; (−) = no growth; settings: S. aureus
Experimental: as §1, §2, §3, §4, §5

[3] = text does not separate the organisms

SMILES: [Na+].[O-]Cl [NaOCl]
- Growth in Test Tube 1 ([1]; 1 minute, 20° C.): −
- Growth in Test Tube 2 ([1]; 1 minute, 20° C.): −
- Growth in Test Tube 3 ([1]; 1 minute, 20° C.): +
- Growth in Test Tube 4 ([1]; 1 minute, 20° C.): +
- Growth in Test Tube 5 ([1]; 1 minute, 20° C.): +
- Growth in Test Tube 6 ([1]; 1 minute, 20° C.): +
- Growth in Test Tube 7 ([1]; 1 minute, 20° C.): +
- Growth in Test Tube 8 ([1]; 1 minute, 20° C.): +
- Growth in Test Tube 9 ([1]; 1 minute, 20° C.): +
- Growth in Test Tube 10 ([1]; 1 minute, 20° C.): +
- Growth in tubes 1–10 [1, 3]: growth in tubes 3–10
- Growth in Test Tube 1 ([2]; 1 minute, 20° C.): −
- Growth in Test Tube 2 ([2]; 1 minute, 20° C.): −
- Growth in Test Tube 3 ([2]; 1 minute, 20° C.): +
- Growth in Test Tube 4 ([2]; 1 minute, 20° C.): +
- Growth in Test Tube 5 ([2]; 1 minute, 20° C.): +
- Growth in Test Tube 6 ([2]; 1 minute, 20° C.): +
- Growth in Test Tube 7 ([2]; 1 minute, 20° C.): +
- Growth in Test Tube 8 ([2]; 1 minute, 20° C.): +
- Growth in Test Tube 9 ([2]; 1 minute, 20° C.): +
- Growth in Test Tube 10 ([2]; 1 minute, 20° C.): +
- Growth in tubes 1–10 [2, 3]: growth in tubes 3–10
